Results as given in paper PMC12658631, “Synthesis and Antitrypanosomal Activity of Novel 2‑Nitroimidazole-3,5-Disubstituted Isoxazole Derivatives with Diaryl Ether and Thioether Substituents” (ACS Omega, 2025).
Read-outs that look alike come from different tables or passages of the source.

Tests used:
[1] = test system: T. cruzi intracellular amastigotes (Tulahuen lacZ strain); test: Antitrypanosomal assay, intracellular amastigotes in LLC-MK2 cells, CPRG readout; format: cell-based, Trypanosoma cruzi; details: for IC50: Trypanosoma cruzi, read-out: Amastigote IC50 (μM ± SD); for activity category (active / moderately active / inactive): category by amastigote IC50
Experimental: (§1) The cytotoxicity evaluation and the determination of the selectivity index (SI) were done on LLC-MK2 cells.
Initially, 5 × 10^3 LLC-MK2 cells/well were infected with trypomastigotes in 96-well plates at a parasite/cell ratio of 10:1. After 48 h, plates were washed twice with PBS before adding compounds in a serial dilution range of 100 μM to 0.78 μM in fresh RPMI 1640 medium (Sigma-Aldrich). As a control, infected untreated cells (100% infection control) were employed. Following 72 h of incubation, amastigote viability tests were performed using 50 μL of PBS containing 2% Triton X-100 and 200 μM CPRG. Tulahuen lacZ strain expressing galactosidase enzyme were used, which catalyzes the yellow reagent of CPRG into a red chromophore that can be easily detected by absorbance at 570 nm after 4 h at 37 °C (microplate reader – Synergy H1). The percentage of amastigotes inhibition (IC50) was calculated as 100-(absorbance of treated infected cells)/(absorbance mean of untreated infected cells) × 100.

Cytotoxicity assay (MTT) = format: cell-based; details: rhesus monkey, LLC-MK2 cells, read-out: LLC-MK2 CC50 (μM ± SD)
Experimental: as §1
To assess chemical cytotoxicity, MTT (3-(4,5-Dimethyl-2-thiazolyl)-2,5-diphenyl-2H-tetrazolium bromide, Sigma-Aldrich)-based kit reagents were employed. LLC-MK2 cells were incubated in 96-well plates for 48 h at a concentration of 5 × 10^3 cells/well. Cells were then washed twice with PBS (Sigma-Aldrich) before being incubated with compounds in a serial dilution from 200 μM to 1.56 μM in fresh RPMI 1640 medium (Sigma-Aldrich). After 72 h, 50 μL of MTT solution (2.0 mg/mL) was added to each well, and the plates were incubated for another 4 h at 37 °C. The resultant formazan crystals were dissolved in DMSO (50 μ L/well) and measured at 570 nm 30 min later in a Synergy H1 microplate reader. Cytotoxic concentration of 50% (CC50) was calculated based on a dose–response curve excluding DMSO cytotoxicity (>1%) of the untreated control.

[2] = test system: T. cruzi amastigote forms; details: triazole with diphenyl ether substituent; ref Assunção et al.; read-out: IC50 against T. cruzi amastigote forms; cited from earlier work
[3] = LLC-MK2, T. cruzi intracellular amastigotes, Tulahuen lacZ strain, 72 h incubation
[4] = ratio of amastigote IC50 values

Row | SMILES | SI, selectivity index: CC50 of LLC-MK2 cells/IC50 of intracellular amastigotes [1] | IC50 [1, 3] [µM] | CC50 at 72 h (Cytotoxicity assay (MTT)) [µM] | further results
1 | O=[N+]([O-])c1nccn1Cc1cc(-c2ccc(Oc3ccc(Cl)c(Cl)c3)cc2)no1 [Compound 6d, 3-(4-(3,4-Dichlorophenoxy)phenyl)-5-((2-nitro-1H-imidazol-1-yl)methyl)isoxazole] | >35.9 | 2.79 ± 0.93 | > 100 | activity category (active / moderately active / inactive) [1]: active
2 | O=C(Cn1ccnc1[N+](=O)[O-])NCc1ccccc1 [BZN, benznidazole, reference compound] | >17.6 | 5.67 ± 0.83 | > 100 | 
3 | O=[N+]([O-])c1nccn1Cc1cc(-c2ccc(Oc3ccc(F)cc3)cc2)no1 [Compound 6b, 3-(4-(4-Fluorophenoxy)phenyl)-5-((2-nitro-1H-imidazol-1-yl)methyl)isoxazole] | >199.4 | 0.5 ± 0.51 | > 100 | 
4 | O=[N+]([O-])c1nccn1Cc1cc(-c2ccc(Oc3ccc(F)cc3)c(F)c2)no1 [Compound 6i, 3-(3-Fluoro-4-(4-fluorophenoxy)phenyl)-5-((2-nitro-1H-imidazol-1-yl)methyl)isoxazole] | >70.4 | 1.42 ± 0.42 | > 100 | fold less active than 6b [1, 4]: 2.8 fold
5 | O=[N+]([O-])c1nccn1Cc1cc(-c2ccc(Sc3ccccc3)cc2)no1 [Compound 6o, 5-((2-Nitro-1H-imidazol-1-yl)methyl)-3-(4-(phenylthio)phenyl)isoxazole] | >4.9 | 20.6 ± 0.98 | > 100 | activity category (active / moderately active / inactive) [1]: moderate activity
6 | O=[N+]([O-])c1nccn1Cc1cc(-c2ccc(Oc3ccccc3)cc2)no1 [Compound 6a, 5-((2-Nitro-1H-imidazol-1-yl)methyl)-3-(4-phenoxyphenyl)isoxazole] | >82.2 | 1.22 ± 0.73 | > 100 | fold more active than the reference drug benznidazole (BZN) [1, 4]: 4.6 fold; fold more active against amastigote forms than its triazole analog ([1]; ratio of amastigote IC50 values, comparator is a literature value): 5.4 fold
7 | O=[N+]([O-])c1nccn1Cc1cn(-c2ccc(Oc3ccccc3)cc2)nn1 [Compound 4b] |  |  |  | IC50 [2]: 6.6 µM
8 | O=[N+]([O-])c1nccn1Cc1cc(-c2ccc(Oc3ccccc3)c(F)c2)no1 [Compound 6h, 3-(3-Fluoro-4-phenoxyphenyl)-5-((2-nitro-1H-imidazol-1-yl)methyl)isoxazole] | >31.4 | 3.18 ± 2.18 | > 100 | activity category (active / moderately active / inactive) [1]: active
9 | Cc1ccc(Oc2ccc(-c3cc(Cn4ccnc4[N+](=O)[O-])on3)cc2)cc1 [Compound 6f, 5-((2-Nitro-1H-imidazol-1-yl)methyl)-3-(4-(P-tolyloxy)phenyl)isoxazole] | >56.5 | 1.77 ± 0.24 | > 100 | 
10 | O=[N+]([O-])c1nccn1Cc1cc(-c2ccc(Sc3ccc(Cl)cc3)cc2)no1 [Compound 6p, 3-(4-((4-Chlorophenyl)thio)phenyl)-5-((2-nitro-1H-imidazol-1-yl)methyl)isoxazole] | >9.0 | 11.1 ± 0.16 | > 100 | 
11 | O=[N+]([O-])c1nccn1Cc1cc(-c2ccc(Oc3ccc(OC(F)(F)F)cc3)cc2)no1 [Compound 6e, 5-((2-Nitro-1H-imidazol-1-yl)methyl)-3-(4-(4-(trifluoromethoxy)phenoxy)phenyl)isoxazole] | >80.1 | 1.25 ± 0.71 | > 100 | 
12 | O=[N+]([O-])c1nccn1Cc1cc(-c2ccc(Oc3ccc(OC(F)(F)F)cc3)c(F)c2)no1 [Compound 6l, 3-(3-Fluoro-4-(4-(trifluoromethoxy)phenoxy)phenyl)-5-((2-nitro-1H-imidazol-1Yl)methyl)isoxazole] | >14.7 |  |  | IC50 ([1]; TULAHUEN, LLC-MK2, 72 h): 3.77 ± 0.07 µM
13 | O=[N+]([O-])c1nccn1Cc1cc(-c2ccc(Oc3ccc(Cl)cc3)cc2)no1 [Compound 6c, 3-(4-(4-Chlorophenoxy)phenyl)-5-((2-nitro-1H-imidazol-1-yl)methyl)isoxazole] | >99.0 | 1.01 ± 1.13 | > 100 | fold less active than 6b [1, 4]: 2 fold
14 | COc1ccc(Oc2ccc(-c3cc(Cn4ccnc4[N+](=O)[O-])on3)cc2F)cc1 [Compound 6n, 3-(3-Fluoro-4-(4-methoxyphenoxy)phenyl)-5-((2-nitro-1H-imidazol-1-yl)methyl)isoxazole] | >28.2 | 3.54 ± 0.21 | > 100 | fold less activity than 6g [1, 4]: 5.5 fold
15 | Cc1ccc(Sc2ccc(-c3cc(Cn4ccnc4[N+](=O)[O-])on3)cc2)cc1 [Compound 6q, 5-((2-Nitro-1H-imidazol-1-yl)methyl)-3-(4-(P-tolylthio)phenyl)isoxazole] | >5.8 | 17.1 ± 0.24 | > 100 | activity category (active / moderately active / inactive) [1]: moderate activity
16 | COc1ccc(Oc2ccc(-c3cc(Cn4ccnc4[N+](=O)[O-])on3)cc2)cc1 [Compound 6g, 3-(4-(4-Methoxyphenoxy)phenyl)-5-((2-nitro-1H-imidazol-1-yl)methyl)isoxazole] | >155.3 | 0.64 ± 0.05 | > 100 | 
17 | Cc1ccc(Oc2ccc(-c3cc(Cn4ccnc4[N+](=O)[O-])on3)cc2F)cc1 [Compound 6m, 3-(3-Fluoro-4-(P-tolyloxy)phenyl)-5-((2-nitro-1H-imidazol-1-yl)methyl)isoxazole] | >13.5 | 7.41 ± 3.22 | > 100 | fold less active than 6f [1, 4]: 4 fold
18 | O=[N+]([O-])c1nccn1Cc1cc(-c2ccc(Oc3ccc(Cl)cc3)c(F)c2)no1 [Compound 6j, 3-(4-(4-Chlorophenoxy)-3-fluorophenyl)-5-((2-nitro-1H-imidazol-1-yl)methyl)isoxazole] | >64.1 | 1.56 ± 0.69 | > 100 | 
19 | O=[N+]([O-])c1nccn1Cc1cc(-c2ccc(Oc3ccc(Cl)c(Cl)c3)c(F)c2)no1 [Compound 6k, 3-(4-(3,4-Dichlorophenoxy)-3-fluorophenyl)-5-((2-nitro-1H-imidazol-1-yl)methyl)isoxazole] | >11.8 | 8.5 ± 2.06 | > 100 | activity category (active / moderately active / inactive) [1]: moderate activity
